Measured values: the NIST ThermoML archive (doi:10.1016/j.tca.2019.01.018)

Key:
[1] = xn = mol fraction of the nth substance listed; settings: Ring tensiometer
[2] = Ring tensiometer

CCn1cc[n+](C)c1.F[B-](F)(F)F [1-ethyl-3-methylimidazolium tetrafluoroborate] + O
surface tension liquid-gas [mN/m], [1]
Settings | x1 = 0.02 | x1 = 0.04 | x1 = 0.06 | x1 = 0.08 | x1 = 0.1 | x1 = 0.2 | x1 = 0.4 | x1 = 0.6 | x1 = 0.8 | x1 = 1
298.15 K | 60.27 | 57.47 | 56.49 | 55.52 | 54.98 | 53.92 | 53.61 | 53.23 | 52.73 | 52.05
308.15 K | 59.07 | 56.47 | 55.69 | 54.82 | 54.38 | 53.52 | 53.21 | 52.83 | 52.33 | 51.65
318.15 K | 57.87 | 55.47 | 54.89 | 54.12 | 53.78 | 53.12 | 52.81 | 52.43 | 51.93 | 51.25
328.15 K | 56.67 | 54.47 | 54.09 | 53.42 | 53.18 | 52.72 | 52.41 | 52.03 | 51.53 | 50.85
338.15 K | 55.47 | 53.47 | 53.29 | 52.72 | 52.58 | 52.32 | 52.01 | 51.63 | 51.13 | 50.45

O [water] + CCCCCCn1cc[n+](C)c1.F[B-](F)(F)F
[1], x2 = 0
Settings | surface tension liquid-gas [mN/m]
298.15 K | 71.8
308.15 K | 70.1
318.15 K | 68.4
328.15 K | 66.7
338.15 K | 65

CCn1cc[n+](C)c1.F[B-](F)(F)F [1-ethyl-3-methylimidazolium tetrafluoroborate]
[2]
Settings | surface tension liquid-gas [mN/m]
298.15 K | 52.05
308.15 K | 51.65
318.15 K | 51.25
328.15 K | 50.85
338.15 K | 50.45

O [water]
[2]
Settings | surface tension liquid-gas [mN/m]
298.15 K | 71.8
308.15 K | 70.1
318.15 K | 68.4
328.15 K | 66.7
338.15 K | 65

CCCCn1cc[n+](C)c1.F[B-](F)(F)F [1-butyl-3-methylimidazolium tetrafluoroborate] + O
surface tension liquid-gas [mN/m], [1]
Settings | x1 = 0.02 | x1 = 0.04 | x1 = 0.06 | x1 = 0.08 | x1 = 0.1 | x1 = 0.2 | x1 = 0.4 | x1 = 0.6 | x1 = 0.8 | x1 = 1
298.15 K | 49.07 | 47.16 | 47.05 | 46.95 | 46.8 | 46.3 | 45.9 | 45.4 | 45 | 44.6
308.15 K | 48.15 | 45.95 | 45.85 | 45.75 | 45.65 | 45.45 | 44.95 | 44.55 | 44.35 | 43.65
318.15 K | 47.35 | 45.15 | 45.05 | 44.95 | 44.85 | 44.65 | 44.15 | 43.75 | 43.55 | 42.95
328.15 K | 46.55 | 44.35 | 44.25 | 44.15 | 44.05 | 43.85 | 43.35 | 42.95 | 42.75 | 42.25
338.15 K | 45.75 | 43.55 | 43.45 | 43.35 | 43.25 | 43.05 | 42.55 | 42.15 | 41.95 | 41.55

CCCCn1cc[n+](C)c1.F[B-](F)(F)F [1-butyl-3-methylimidazolium tetrafluoroborate]
[2]
Settings | surface tension liquid-gas [mN/m]
298.15 K | 44.6
308.15 K | 43.65
318.15 K | 42.95
328.15 K | 42.25
338.15 K | 41.55

CCCCCCn1cc[n+](C)c1.F[B-](F)(F)F [1-hexyl-3-methylimidazolium tetrafluoroborate]
[2]
Settings | surface tension liquid-gas [mN/m]
298.15 K | 37.22
308.15 K | 36.62
318.15 K | 35.92
328.15 K | 35.22
338.15 K | 34.52

CCCCCCn1cc[n+](C)c1.F[B-](F)(F)F [1-hexyl-3-methylimidazolium tetrafluoroborate] + O
surface tension liquid-gas [mN/m], [1]
Settings | x1 = 0.3 | x1 = 0.4 | x1 = 0.5 | x1 = 0.6 | x1 = 0.7 | x1 = 0.8 | x1 = 0.9 | x1 = 1
298.15 K | 38.1 | 37.7 | 37.54 | 37.42 | 37.33 | 37.26 | 37.23 | 37.22
308.15 K | 37.26 | 37.08 | 36.84 | 36.82 | 36.73 | 36.66 | 36.63 | 36.62
318.15 K | 36.56 | 36.28 | 36.34 | 36.12 | 36.03 | 35.86 | 35.93 | 35.92
328.15 K | 35.96 | 35.68 | 35.64 | 35.42 | 35.33 | 35.26 | 35.23 | 35.22
338.15 K | 35.26 | 34.98 | 34.84 | 34.72 | 34.63 | 34.56 | 34.53 | 34.52

O [water] + CCCCn1cc[n+](C)c1.F[B-](F)(F)F
[1], x2 = 0
Settings | surface tension liquid-gas [mN/m]
298.15 K | 71.8
308.15 K | 70.1
318.15 K | 68.4
328.15 K | 66.7
338.15 K | 65

O [water] + CCn1cc[n+](C)c1.F[B-](F)(F)F
[1], x2 = 0
Settings | surface tension liquid-gas [mN/m]
298.15 K | 71.8
308.15 K | 70.1
318.15 K | 68.4
328.15 K | 66.7
338.15 K | 65
